In PubChem BioAssay AID328 (DTP/NCI, 2004):
Several values for one entry are separate records, joined by “and”; a condition that tells them apart may be missing. Equal values may be shown once. Inconclusive results and toxic doses are left out. The calls were made as follows: active = survival T/C of 150% or more; inactive = T/C below 125% in these data.

Test system: BDF1 mice, P388 leukemia ip, median survival T/C
Assay: NCI In Vivo Anticancer Drug Screen. Data for tumor model P388 Leukemia (intraperitoneal) in B6D2F1 (BDF1) mice
Settings: endpoint: median survival time, higher = longer survival
Summary of the method: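 Survival ratio, drug arm over vehicle arm, in mice with a transplanted tumour.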

[1] = dose: 25.0 mg/kg/injection, schedule: Q04DX003 (ip), vehicle: saline with Tween-80
[2] = dose: 35.0 mg/kg/injection, schedule: Q04DX003 (ip), vehicle: saline
[3] = dose: 50.0 mg/kg/injection, schedule: Q01DX009 (ip), vehicle: saline with Tween-80
[4] = dose: 50.0 mg/kg/injection, schedule: Q04DX003 (ip), vehicle: saline with Tween-80
[5] = dose: 55.0 mg/kg/injection, schedule: Q04DX003 (ip), vehicle: saline
[6] = dose: 80.0 mg/kg/injection, schedule: Q04DX003 (ip), vehicle: saline
[7] = dose: 100.0 mg/kg/injection, schedule: Q04DX003 (ip), vehicle: saline with Tween-80
[8] = dose: 200.0 mg/kg/injection, schedule: Q04DX003 (ip), vehicle: saline with Tween-80
[9] = dose: 100.0 mg/kg/injection, schedule: Q01DX009 (ip), vehicle: saline with Tween-80
[10] = dose: 200.0 mg/kg/injection, schedule: Q01DX009 (ip), vehicle: saline with Tween-80
[11] = dose: 12.5 mg/kg/injection, schedule: Q01DX009 (ip), vehicle: Klucel (hydroxypropylcellulose) (HPC)
[12] = dose: 25.0 mg/kg/injection, schedule: Q01DX009 (ip), vehicle: Klucel (hydroxypropylcellulose) (HPC)
[13] = dose: 50.0 mg/kg/injection, schedule: Q01DX009 (ip), vehicle: Klucel (hydroxypropylcellulose) (HPC)
[14] = dose: 100.0 mg/kg/injection, schedule: Q04DX003 (ip), vehicle: saline
[15] = dose: 200.0 mg/kg/injection, schedule: Q04DX003 (ip), vehicle: saline
[16] = dose: 400.0 mg/kg/injection, schedule: Q04DX003 (ip), vehicle: saline

Measured: T/C

Clc1ccc2nc(CBr)cnc2c1
inactive: dose: 12.5 mg/kg/injection, schedule: Q01DX009 (ip), vehicle: other 104 % of control | dose: 12.5 mg/kg/injection, schedule: Q01DX009 (ip), vehicle: saline 120 % of control | dose: 25.0 mg/kg/injection, schedule: Q01DX009 (ip), vehicle: other 109 % of control | dose: 25.0 mg/kg/injection, schedule: Q01DX009 (ip), vehicle: saline 120 % of control | [1] 95 % of control | [2] 108 % of control | dose: 50.0 mg/kg/injection, schedule: Q01DX009 (ip), vehicle: other 118 % of control | [3] 118 % of control | dose: 50.0 mg/kg/injection, schedule: Q01DX009 (ip), vehicle: saline 110 % of control | [4] 109 % of control | [5] 116 % of control | [6] 116 % of control | [7] 109 % of control | [8] 103 % of control

O=CCC(O)C(O)C(O)CO (configuration not stated)
inactive: dose: 94.0 mg/kg/injection, schedule: Q01DX010 (ip), vehicle: saline 100 % of control | dose: 188.0 mg/kg/injection, schedule: Q01DX010 (ip), vehicle: saline 100 % of control | dose: 375.0 mg/kg/injection, schedule: Q01DX010 (ip), vehicle: saline 113 % of control | dose: 750.0 mg/kg/injection, schedule: Q01DX010 (ip), vehicle: saline 100 % of control

NC(c1ccccc1)C(N)c1ccccc1 (configuration not stated)
inactive: [7] 95 % of control

CC(C)S(=O)(=O)/C(Cl)=C(/Cl)C(Cl)=C(Cl)Cl
inactive: dose: 13.0 mg/kg/injection, schedule: Q01DX009 (ip), vehicle: Klucel (hydroxypropylcellulose) (HPC) 100 % of control | dose: 20.0 mg/kg/injection, schedule: Q01DX009 (ip), vehicle: Klucel (hydroxypropylcellulose) (HPC) 100 % of control | dose: 30.0 mg/kg/injection, schedule: Q01DX009 (ip), vehicle: Klucel (hydroxypropylcellulose) (HPC) 95 % of control

CC(=S)Nc1ccc2ccccc2c1
inactive: [9] 107 % of control | [7] 118 % of control | [10] 107 % of control | [8] 109 % of control | dose: 400.0 mg/kg/injection, schedule: Q01DX009 (ip), vehicle: saline with Tween-80 119 % of control | dose: 400.0 mg/kg/injection, schedule: Q04DX003 (ip), vehicle: saline with Tween-80 122 % of control

CC(=O)[O][Pb]([CH2]CC(C)C)([CH2]CC(C)C)[CH2]CC(C)C
inactive: dose: 0.19 mg/kg/injection, schedule: Q01DX009 (ip), vehicle: saline with Tween-80 123 % of control | dose: 0.38 mg/kg/injection, schedule: Q01DX009 (ip), vehicle: Klucel (hydroxypropylcellulose) (HPC) 94 % of control | dose: 0.38 mg/kg/injection, schedule: Q01DX009 (ip), vehicle: saline with Tween-80 111 % of control | dose: 0.75 mg/kg/injection, schedule: Q01DX009 (ip), vehicle: Klucel (hydroxypropylcellulose) (HPC) 105 % of control | dose: 0.75 mg/kg/injection, schedule: Q01DX009 (ip), vehicle: saline with Tween-80 106 % of control

CC(=O)C(C)[P+](c1ccccc1)(c1ccccc1)c1ccccc1 (configuration not stated)
inactive: dose: 2.0 mg/kg/injection, schedule: Q01DX009 (ip), vehicle: water 95 % of control | dose: 4.0 mg/kg/injection, schedule: Q01DX009 (ip), vehicle: water 100 % of control | dose: 8.0 mg/kg/injection, schedule: Q01DX009 (ip), vehicle: water 93 % of control | dose: 12.5 mg/kg/injection, schedule: Q01DX009 (ip), vehicle: water 96 % of control | dose: 16.0 mg/kg/injection, schedule: Q01DX009 (ip), vehicle: water 103 % of control | dose: 25.0 mg/kg/injection, schedule: Q01DX009 (ip), vehicle: water 91 % of control

O=C(Cl)c1cc2ccccc2o1
inactive: dose: 100.0 mg/kg/injection, schedule: Q01DX001 (ip), vehicle: saline with Tween-80 91 % of control | dose: 200.0 mg/kg/injection, schedule: Q01DX001 (ip), vehicle: saline with Tween-80 108 % of control | dose: 400.0 mg/kg/injection, schedule: Q01DX001 (ip), vehicle: saline with Tween-80 91 % of control

C=C(C)C(O)C(O)c1cc2ccc(=O)oc2cc1OC (configuration not stated)
inactive: dose: 8.75 mg/kg/injection, schedule: Q01DX009 (ip), vehicle: carboxymethylcellulose (CMC) 96 % of control | dose: 17.5 mg/kg/injection, schedule: Q01DX009 (ip), vehicle: carboxymethylcellulose (CMC) 88 % of control

C[N+](C)(C)c1ccc(/C=N\NC(=O)c2ccccc2)cc1
inactive: [11] 105 % of control | dose: 12.5 mg/kg/injection, schedule: Q04DX003 (ip), vehicle: Klucel (hydroxypropylcellulose) (HPC) 100 % of control | [12] 105 % of control | dose: 25.0 mg/kg/injection, schedule: Q04DX003 (ip), vehicle: Klucel (hydroxypropylcellulose) (HPC) 100 % of control | [13] 105 % of control | dose: 50.0 mg/kg/injection, schedule: Q04DX003 (ip), vehicle: Klucel (hydroxypropylcellulose) (HPC) 95 % of control

Nc1noc(N)n1
inactive: [14] 109 % of control | [15] 100 % of control | [16] 104 % of control

CNC(=O)OCc1c(COC(=O)NC)c(-c2ccc(F)cc2)n2c1CCC2
inactive: dose: 1.56 mg/kg/injection, schedule: Q01DX009 (ip), vehicle: Klucel (hydroxypropylcellulose) (HPC) 122 % of control

COC(=O)C1C2CCC3C2C(C)(C)CCCC31C (configuration not stated)
inactive: [1] 100 % of control | [4] 95 % of control | [7] 104 % of control | [8] 118 % of control

CNNC(=O)NC
inactive: dose: 2.06 mg/kg/injection, schedule: Q01DX009 (ip), vehicle: saline 108 % of control | dose: 4.12 mg/kg/injection, schedule: Q01DX009 (ip), vehicle: saline 116 % of control | dose: 8.25 mg/kg/injection, schedule: Q01DX009 (ip), vehicle: saline 91 % of control | [2] 109 % of control | [5] 113 % of control | [6] 118 % of control | dose: 120.0 mg/kg/injection, schedule: Q04DX003 (ip), vehicle: saline 109 % of control | dose: 180.0 mg/kg/injection, schedule: Q04DX003 (ip), vehicle: saline 113 % of control | dose: 270.0 mg/kg/injection, schedule: Q04DX003 (ip), vehicle: saline 109 % of control

CC1(C#N)CCC2c3ccccc3CCC2C1=O (configuration not stated)
inactive: [14] 100 % of control | [15] 100 % of control | [16] 100 % of control

CCCCC/C(C)=N\Nc1ccccn1
inactive: [11] 100 % of control | [12] 113 % of control | [13] 104 % of control and 113 % of control | dose: 100.0 mg/kg/injection, schedule: Q01DX009 (ip), vehicle: Klucel (hydroxypropylcellulose) (HPC) 118 % of control

COC(=O)C1(C)CCc2c(ccc3ccccc23)C1=O (configuration not stated)
inactive: dose: 100.0 mg/kg/injection, schedule: Q01DX001 (ip), vehicle: other 100 % of control | dose: 200.0 mg/kg/injection, schedule: Q01DX001 (ip), vehicle: other 95 % of control | dose: 400.0 mg/kg/injection, schedule: Q01DX001 (ip), vehicle: other 113 % of control

CCCN([Si](C)(C)C)[Si](C)(C)C
inactive: [3] 107 % of control | [9] 107 % of control | [7] 100 % of control | [10] 100 % of control | [8] 104 % of control
